Results published in patent publication US12384923B2, “Method of treatment of a surface” (Conopco, Inc., priority 2018, dated 2025).

System: Raphidocelis subcapitata
Experiment: Algal growth inhibition by lactam (absorbance at 680 nm of algal cultures in 6-well plates)
Format: cell-based
Description: The freshwater algae Raphidocelis subcapitata was purchased from Culture Collection of Algae and Protozoa (CCAP 278/4). The algae was cultivated in commercial Gibco BG-11 Media. A bespoke built UV exposure cabinet was used for cultivation. The UV bulbs were replaced by light bulbs (Osram L 8W I535 white). The experiments were performed in sterile 6-well microtiter plates made from polystyrene under static conditions and room temperature. The light-dark cycle was 9 h dark and 15 h light. The quantification was done spectrophotometrically in the 6-well plate by using absorbance measurements. A wavelength scan was done to measure the absorbance maximum of the algaea. […] Since the algaea tend to sediment the plate was obitally shaken to bring the cells in suspension before measuring. Measuring was performed using a Varioscan plate reader for microtiter plates.
In this experiment, the algal cultures were treated with lactam at levels of 10 μM to 200 μM as well as two control plates, one untreated, and one treated with solvent (DMSO) only. The specific levels of lactam measured were 10 μM, 20 μM, 30 μM, 40 μM, 50 μM, 100 μM, 150 μM, 200 μM would equate to levels of from 2 ppm (10 μM) to 40 ppm (200 μM), and to wt. % of 0.0002 wt. % (10 μM) to 0.004 wt. % (200 μM). The lactam was provided in a DMSO solvent to the plates. The rate of growth of the algal culture was measured after 12 days by absorbance value.
In this experiment, the algal cultures were treated with lactam at levels of 0.01 μM to 10 μM as well as two control plates, one untreated, and one treated with solvent (DMSO) only. The specific levels of lactam measured were 0.01 μM, 0.1 μM, 1 μM, 10 μM, this would equate to levels of from 0.002 ppm also defined as 2 ppb (0.01 μM) to 2 ppm (10 μM), and to wt. % of 0.0000002 wt. % (0.01 μM) to 0.0002 wt. % (10 μM). The lactam was provided in a DMSO solvent to the plates. The rate of growth of the algal culture was measured after 6 days by absorbance value.

C=C1NC(=O)C=C1c1ccc(Cl)cc1 [4-(4-chlorophenyl)-5-methylene-pyrrol-2-one]
no algal growth inhibition was seen: algal growth inhibition (in words) (Example 3, lactam 1 μM, 6 days) | algal growth inhibition (in words) (Example 3, lactam amount even lower than 1 μM (0.1 μM, 0.01 μM), 6 days)
0.1: Absorbance (680 nm) (Example 2, lactam 10 μM, after 12 days) | Absorbance (680 nm) (Example 2, lactam 20 μM, after 12 days) | Absorbance (680 nm) (Example 2, lactam 30 μM, after 12 days) | Absorbance (680 nm) (Example 2, lactam 40 μM, after 12 days) | Absorbance (680 nm) (Example 2, lactam 50 μM, after 12 days) | Absorbance (680 nm) (Example 2, lactam 100 μM, after 12 days) | Absorbance (680 nm) (Example 2, lactam 150 μM, after 12 days) | Absorbance (680 nm) (Example 2, lactam 200 μM, after 12 days) | Absorbance (680 nm) (Example 3, lactam 10 μM, after 6 days)
very effective algal growth inhibition: algal growth inhibition (in words) (Example 2, lactam level of 10 μM (0.0002 wt. %) and above, 12 days) | algal growth inhibition (in words) (Example 3, lactam level of 10 μM (0.0002 wt. %) and above, 6 days)
0.8: Absorbance (680 nm) (Example 3, lactam 0.01 μM, after 6 days)
0.9: Absorbance (680 nm) (Example 3, lactam 0.1 μM, after 6 days) | Absorbance (680 nm) (Example 3, lactam 1 μM, after 6 days)
